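Dose response: 5 concentrations. Exposure: 48 h. Format: 96-well plates. Endpoint: linear interpolation; highest concentration if not reached. Definition used: TGI = concentration required for complete inhibition of growth.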
Tests used:
Test in all cases: inhibition of tumour cell growth, NCI panel, 48 h
A498 renal = tested on: A498 renal
CCRF-CEM leukemia = tested on: CCRF-CEM leukemia
EKVX NSCLC = tested on: EKVX NSCLC
HCC-2998 colon = tested on: HCC-2998 colon
HOP-62 NSCLC = tested on: HOP-62 NSCLC
HOP-92 NSCLC = tested on: HOP-92 NSCLC
HT29 colon = tested on: HT29 colon
KM12 colon = tested on: KM12 colon
KM20L2 colon = tested on: KM20L2 colon
LOX IMVI melanoma = tested on: LOX IMVI melanoma
MCF7 breast = tested on: MCF7 breast
NCI-H226 lung = tested on: NCI-H226 lung
NCI/ADR-RES ovarian = tested on: NCI/ADR-RES ovarian
SN12C renal = tested on: SN12C renal
SNB-19 CNS = tested on: SNB-19 CNS
SNB-75 CNS = tested on: SNB-75 CNS
SW-620 colon = tested on: SW-620 colon
ACHN renal = tested on: ACHN renal
BT-549 breast = tested on: BT-549 breast
M14 melanoma = tested on: M14 melanoma

| SMILES | TGI (A498 renal) | TGI (CCRF-CEM leukemia) | TGI (EKVX NSCLC) | TGI (HCC-2998 colon) | TGI (HOP-62 NSCLC) | TGI (HOP-92 NSCLC) | TGI (HT29 colon) | TGI (KM12 colon) | TGI (KM20L2 colon) | TGI (LOX IMVI melanoma) | TGI (MCF7 breast) | TGI (NCI-H226 lung) | TGI (NCI/ADR-RES ovarian) | TGI (SN12C renal) | TGI (SNB-19 CNS) | TGI (SNB-75 CNS) | TGI (SW-620 colon) | TGI (ACHN renal) | TGI (BT-549 breast) | TGI (M14 melanoma) |
| --- | --- | --- | --- | --- | --- | --- | --- | --- | --- | --- | --- | --- | --- | --- | --- | --- | --- | --- | --- | --- |
| O=C1C=C2SC3C[C@@]24CC1[N+]1=c2c4c(c(O)c4c2=C(C=N4)CC1)N3 | 16.6 µM | > 100 µM | 4.8 µM | 6.78 µM | 32.6 µM | > 100 µM | > 26 µM | 4.74 µM | 3.81 µM | 6.65 µM | 4.23 µM | 4.76 µM | 16.1 µM | 6.95 µM | 9.66 µM | 12.2 µM | 5.44 µM |  |  |  |
| C=CCc1cc(-c2cc(CC=C)c(O)c(CN(CC)CC)c2)cc(CN(CC)CC)c1O | > 100 µM | 79.1 µM | > 100 µM | > 100 µM | 76.8 µM | 96.9 µM | 40.9 µM | > 100 µM | 40 µM | 31.7 µM | > 100 µM | 98.7 µM | > 100 µM | > 100 µM | > 100 µM | > 100 µM | 76.2 µM | > 100 µM | > 100 µM | 23.4 µM |
